Measured values taken from US9162992B2, “Compounds and compositions for treatment of breathing control disorders or diseases” (GALLEON PHARMACEUTICALS, INC., priority 2010, dated 2015).

What was measured:
[1] = system: morphine-induced respiratory depression; test: Opioid-induced respiratory depression in the rat, plethysmography (minute ventilation); type: in vivo; details: morphine sulfate 10 mg/kg IV; infusion 0.10 then 0.30 mg/kg/min, 20 min each; vs vehicle
Protocol: Rats with pre-cannulated jugular vein (for administering drugs) were acclimated to plethysmography chambers for a minimum of 60 minutes, or until animals were no longer restless. Each animal was dosed with morphine sulfate (10 mg/kg), dissolved in sterile water at a concentration of 10 mg/mL (supplied by Baxter Healthcare Corporation), via injection into the jugular vein catheter over a period of 5-10 seconds.
Compound (XXXVI) was dissolved in 20% hydroxypropyl β-cyclodextran (20% bcd on graph) at a concentration of 0.45 mg/mL at pH 5. After a period of 5 min, compound (XXXVI), labeled as cmpd (A), was administered via infusion into the jugular vein at a dose of 0.10 mg/kg/min for 20 min and then at a dose of […] for 20 min (e.g., 20 μL/min/0.3 kg rat to yield […]).
After 20 minutes of infusion at this dose, the infusion pumps were turned off, and all animals were given a 20 minute recovery period, followed by a post-study analysis of rat health and behavior. […] Results are illustrated in FIG. 1.

[2] = system: opioid-induced respiratory depression; test: Opioid-induced respiratory depression in the monkey; type: in vivo, Macaca fascicularis; details: 0.20 mg/kg/min 5 min, then 0.10 mg/kg/min 10 min
Protocol: Juvenile macaques (four-year-old Macaca fascicularis, 2 to 5 kg, n=13) were used for the study. Animal husbandry was conducted under USDA guidelines and the protocols were approved by the Institutional Animal Care and Use Committee of East Carolina University.
Anesthesia was induced with 5% isoflurane and then maintained with 1.5 to 2% isoflurane (100% O2, 2 L/min). Antebrachial veins were cannulated. Vivometrics Lifeshirts (Ventura, Calif.) were fitted to the animals for monitoring respiratory function by inductance plethysmography. Abdomen and rib cage deflections were calibrated using the Qualitative Diagnostic Calibration (QDC) procedure, and tidal volume was normalized to 15 mL, which represented a typical tidal volume for these animals as previously measured using conventional techniques. Heart rate was monitored continuously by 3-lead ECG.
ETCO2 was measured via a neonatal nasal cannula connected to a microstream CO2 sensor (Cardell monitor, Model 9405). SpO2 and HR were monitored by pulse oximetry using a reflectance probe (Nelcor Max-Fast) positioned on the inner aspect of the upper arm. HR was also determined from the ECG allowing measurement when animal activity compromised the integrity of pulse oximetry signals. BP was measured in anesthetized animals using a cuff positioned on the ankle. […]

[3] = system: midazolam-induced respiratory depression; test: Benzodiazepine-induced respiratory depression (BIRD), midazolam, rat plethysmography; type: in vivo
Protocol: Compound (XXXVI) was dissolved in 20% hydroxypropyl-beta-cyclodextran in sterile water, and titrated to a pH of 4-8 using pH paper and NaOH or HCl, resulting in a clear, stable solution at a concentration of 1.5 mg/mL. Other compounds: morphine sulfate, supplied as 10 mg/mL solution by (Baxter, Inc) and midazolam, supplied as 5 mg/mL solution (Hospira, Inc.)
Male Sprague-Dawley rats (Harlan, Inc.), 250-350 g at time of dosing, surgically prepared by Harlan with jugular vein cannulas. 12 Chamber Plethysmography System with temperature/humidity compensation (Epstein et al., 1980, J. Apply Physiol. 49:1107-1115); From Buxco, Inc. (PLY 3223; Buxco, Inc, Wilmington, N.C., USA) Biosystem XA, software, v2.11.1. Customized 12 site automated infusion system (Harvard Apparatus; Instech, Inc)
Rat whole body plethysmography was used to evaluate and quantify minute ventilation and the pattern of breathing. A respiratory waveform was generated from the exchange of air between the animal and the chamber. This exchange induced changes in air volume that were measured with a pressure transducer, constituting the respiratory waveform. Atmospheric temperature and humidity were also measured using temperature and humidity probes which sampled chamber conditions. A compensation factor was then determined and applied to the respiratory waveform using a standardized algorithm (Epstein et al., 1980, J. Apply Physiol. 49:1107-1115) to compensate for respiratory conditioning, which was reported as the parameter COMP (see appendix).
All animals were acclimated to plethysmography chambers for at least 1 hour, or until animals were no longer restless (up to 2 hours) prior to data collection. Bolus intravenous (IV) dosing was administered at a rate of 5-10 seconds per dose, and catheters were flushed with 350 μL of sterile saline to be sure of complete drug delivery. […] All plethysmography data was recorded automatically by the Buxco equipment.
Respiratory data were collected on a breath-by-breath basis and averaged into 1 min time bins for data analysis. For each designated acquisition phase, which is the time between doses, percent change from pre-treatment baseline values were calculated for each cohort on multiple ventilatory parameters including respiratory frequency (f), tidal volume (TV), accumulated volume (AV), minute ventilation (MV), inspiratory time (Ti), expiratory time (Te), peak inspiratory flow (PIF), peak expiratory flow (PEF), relaxation time (RT), end inspiratory pause (EIP), end expiratory pause (EEP), delta volume (DV), expiratory flow at 50% TV (EF50), rejection index (Rinx), compensation (Comp), enhanced pause (Penh), pause (PAU), PEF rate (Rpef), relative humidity (RH), and atmospheric temperature (Temp). […]

With `CCCNc1nc(NCCC)nc(N(C)OC)n1.O=S(=O)(O)O` [XXXVI, N-(4,6-Bis-n-propylamino-[1,3,5]triazin-2-yl)-N,O-dimethyl-hydroxylamine hydrogen sulfate] the “minute ventilation, reversal of opioid-induced respiratory depression” value [1] was “significantly reversed opioid-induced respiratory depression”, the “end-tidal carbon dioxide increases caused by the opioid” value [2] was “full reversal” and the minute ventilation [2] was “increased minute ventilation”. For the same molecule, the “effect on f, Ti, RT, EIP, dv, EF50, Rinx, Comp, Penh, PAU, Rpef, RH and Temp” value ([3]; 0.1 mg/kg/min infusion 30 min) was “had no obvious effect”, the “effects of midazolam on MV, TV, AV, Te, PIF, PEF and EEP” value ([3]; 0.1 mg/kg/min infusion 30 min) was “had an effect to reverse the effects of midazolam” and the “reversal of the BIRD induced decrease in MV” value ([3]; 0.1 mg/kg/min infusion, end of infusion period (t=38)) was 100. The adverse behavioral effects ([3]; rats, doses tested) was “no adverse behavioral effects observed”.
